Results reported in publication PMC8840689, “Bacillus cereus Toxin Repertoire: Diversity of (Iso)cereulide(s)” (Molecules, 2022).

What was measured:
[1] = UPLC retention on RP-BEH-C18 column (analyte hydrophobicity); assay type: physicochemical; conditions: for RT (retention time on RP-BEH-C18 UPLC column): chromatographic, BEH-C18 2.1 × 150 mm, 1.7 µm, 0.4 mL/min, 45 °C, A aqueous HCOOH (0.1%), B MeCN with HCOOH (0.1%), 93% B to 100% B in 4 min, ESI-TOF-MS, uncalibrated, link to hydrophobicity only implicit
Protocol: Purification of cereulide (1) and isocereulides H–N (2–8): The purification of 1–8 from the reduced ethanol extract was performed according to the literature. In brief, the extract was diluted with H2O (1:10) for better retention of the target analytes on the column material and pre-fractionated via C18 SPE cartridges (60 mL, 10 g; Chromabond, Macherey-Nagel, Düren, Germany). All obtained methanolic fractions were combined and the solvent was reduced to approx. 150 mL using a rotary evaporator and stored at −20 °C until further use for compound isolation. The sample material was separated via semi-preparative HPLC into 10 fractions (Supplementary Materials, Figure S1), for which the respective eluates were combined and their solvents removed through a rotary evaporator. The obtained HPLC fractions were screened for cereulide (1) and its isocereulides using a UPLC-TOF-MS system Synapt G2-S (Waters, Manchester, UK) in the positive electrospray mode equipped with a 2.1 × 150 mm, 1.7 µm BEH-C18 column (Waters, Manchester, UK) at a flow rate of 0.4 mL/min at 45 °C using aqueous HCOOH (0.1%) as solvent A and MeCN with HCOOH (0.1%) as solvent B. Elution was performed by starting at 93% B, increasing to 100% B in 4 min, holding at 100% B for 2 min, followed by decreasing to 93% in 0.1 min and holding at 93% B for 0.9 min.

HEp-2 cells [2] = assay type: cell-based
Text: (§1) Determination of EC50 of cereulide (1) and isocereulides H–N (2–8) via HEp-2 cell assay. The testing principle of the HEp-2 cell assay is based on the uncoupling of ATP synthesis, effectuated by supplemented ionophores, resulting in a facilitated ion influx into the mitochondria, thus disrupting the membrane potential. As a result, the 50% effective concentration (EC50) gives the amount of toxin required to inactivate half of the viable cells.
HEp-2 cell assay: The cytotoxic activity of 1–8 was determined by quantifying their EC50 using HEp-2 cells, as described previously. In a 96-well microtiter plate assay, a 2% ethanolic minimum essential medium (MEM-Earle’s), containing 2% FCS, 1% sodium pyruvate and 0.4% penicillin-streptomycin (v/v each), was provided to perform stepwise dilution of each toxin solution. As an overall toxicity reference and cell control, the structurally related toxin valinomycin was used analogously, in a range of approx. 2–500 ng/mL. The composition of each toxin sample is listed in the Supplementary Materials, Table S2. The HEp-2 cells were freed from their medium and washed with 5 mL of PBS twice and 5 mL of 0.05% Trypsin/EDTA solution was added. After incubation (8 min, 37 °C, 5% CO2), 10 mL of MEM was added and the cells were resuspended, transferred to a falcon tube and centrifuged (RT, 7 min, 700 rpm). The supernatant was discarded, the cell pellet was suspended in 5 mL of MEM and the cell count was determined via Trypan blue. Finally, the cell count was set to 6.7 × 10^5 cells/mL MEM (1 × 10^5 cells/well); a total of 150 µL of this solution was spiked to each well and the plate was incubated (48 h, 37 °C, 5% CO2). After removing 100 µL of the medium, 10 µL of the cell proliferation reagent WST (cell counting kit) was added and shaken for 1 min (400 rpm) and the plate was incubated (20 min, 37 °C, 5% CO2). To determine cell viability, the extinction at 450 nm/620 nm (TECAN infinite F200) was measured. The respective EC50 values for each sample were then calculated from the obtained dose-response curves and the corresponding applied sample dilution and concentration.
An aliquot of 2 µL of the respective samples with ^13C6-cereulide as an internal standard (100 ng/mL) was applied for the quantitation of 1–8 in the samples, later applied in the HEp-2 cell assay according to the literature, performed on a Waters Xevo TQ-S mass spectrometer (Waters) coupled to an Acquity UPLC i-class core system (Waters) with a binary solvent manager, sample manager and column oven. The system was operated with MassLynx 4.1 SCN 813 Software (Waters) and data processing and analysis were performed with TargetLynx (Waters). The recently reported quantitation method for cereulide and isocereulides A-G [33] was extended by implementing the ammonium adducts of 2–8 using the multiple reaction monitoring mode with the following parameters. Compounds 2, 3 and 7 m/z 1156.6 → qualifier m/z 172.2, 314.2; quantifier m/z 357.2. Compound 4 m/z 1142.6 → qualifier m/z 172.2, 314.2; quantifier m/z 357.2. Compound 5 m/z 1184.6 → qualifier m/z 172.2, 314.2; quantifier m/z 357.2. Compounds 6 and 8 m/z 1186.6 → qualifier m/z 172.2, 314.2; quantifier m/z 357.2. The calibration for the quantitation of the analytes consisted of mixtures of cereulide (0.1–1000 ng/mL in EtOH) and ^13C6-cereulide (100 ng/mL) as an internal standard. Mixtures were prepared from stock solutions and analyzed in triplicate by UPLC-MS/MS. The calibration curve was obtained by plotting the peak area ratios of analytes to internal standard against the concentration ratios of analyte to internal standard for each solution and applying linear regression (origin excluded) to give the equation y=2.5174x+0.0061 with R^2=0.9998 . For 1 and ^13C6-cereulide, the quantifier mass transitions were selected as m/z 1170.7 → m/z 357.2 and m/z 1176.7 → m/z 358.2, respectively. All mass spectrometric and chromatographic parameters were used as reported.

[3] = cited from earlier work
Text: . Cereulide (1) is composed of 12 alternatingly placed α-amino and α-hydroxy acids thought to form the three-time circularly repeating tetradepsipeptide unit D-O-Leu-D-Ala-L-O-Val-L-Val (Figure 1), leading to its characteristic dodecadepsipeptide structure in a rectangular cylindrical shape. Because of its uniqu ...

5–HT3 receptors = conditions: lower concentrations; stimulation of the vagus afferent by binding to 5–HT3 receptors in the duodenum; cited from earlier work
Text: (§2) Similar to the antibiotic valinomycin, cereulide unfolds its toxicity potential due to a high affinity for complex formation with alkali metal ions (Li^+, Na^+ and K^+) and ammonium ions, resulting in its biological function as a strong K^+ ionophore and as a K^+ transporter, resulting in cell membrane depolarization.

blood–brain barrier = conditions: porcine model; cited from earlier work
Text: as §2

[4] = cited from earlier work; remark: listed apart in the source
Text: as §1

HEp-2 cells [5] = conditions: cited from earlier work
Text: At this point, we can only speculate about the magnitude of the impact that isocereulides have on the overall toxicity of (iso)cereulide-containing B. cereus cell cultures.

Molecule	RT (retention time on RP-BEH-C18 UPLC column) [1]	also measured
isocereulide L	2.76 min	–
isocereulide N	2.76 min	–
isocereulide J	3.57 min	–
isocereulide G	4.56 min	–
isocereulide B	3.83 min	–
CC[C@@H]1NC(=O)[C@H](C(C)C)OC(=O)[C@@H](C)NC(=O)[C@@H](CC(C)C)OC(=O)[C@H](C(C)C)NC(=O)[C@H](C(C)C)OC(=O)[C@@H](C)NC(=O)[C@@H](CC(C)C)OC(=O)[C@H](C(C)C)NC(=O)[C@H](C(C)C)OC(=O)[C@@H](C)NC(=O)[C@@H](CC(C)C)OC1=O [Isocereulide I, isocereulide I]	3.40 min	absolute EC50 (HEp-2 cells [2]; 48 h): 1.75 ng/mL; toxicity relative to cereulide (1) (reciprocal EC50, cereulide set to 1) (HEp-2 cells [2]; HEp-2 cells, 48 h): 1.4 fold; hydrophobicity compared with 1 (in words) [1]: slightly more hdrophilic
isocereulide K	4.59 min	cytotoxicity compared to 1 (HEp-2 cells [2]; HEp-2 cells, 48 h): 69%; hydrophobicity compared with 1 (in words) [1]: more hydrophobic than 1
D-O-Leu-D-Ala-L-O-Val-L-Val-D-O-Leu-Gly-L-O-Val-L-Val-D-O-Ile-D-Ala-L-O-Val-L-Val (lariat or depsi) [Isocereulide M, isocereulide M, cereulide variant, D-Ala by Gly and D-O-Leu by D-O-Ile]	3.07 min	–
isocereulide E	3.83 min	–
CC(C)C[C@H]1OC(=O)[C@H](C(C)C)NC(=O)[C@H](C(C)C)OC(=O)[C@@H](C)NC(=O)[C@@H](CC(C)C)OC(=O)[C@H](C(C)C)NC(=O)[C@H](C(C)C)OC(=O)[C@@H](C)NC(=O)[C@@H](CC(C)C)OC(=O)[C@H](C(C)C)NC(=O)[C@H](C(C)C)OC(=O)[C@@H](C)NC1=O [Cereulide, cereulide]	4.25 min	absolute EC50 (HEp-2 cells [2]; 48 h): 2.44 ng/mL; toxic effect relative to valinomycin at an equally applied concentration (HEp-2 cells [2]; HEp-2 cells, from EC50 values, data not shown): 13.7 times; stability to temperatures, pH values and enzymes [3]: inert to a wide range of temperatures, pH values and enzymes; emetic effect (5–HT3 receptors): provoke vomiting; crossing of the blood–brain barrier (blood–brain barrier): can cross the blood–brain barrier; increased toxicity compared to valinomycin [4]: approx. 15 fold
isocereulide A	4.83 min	higher toxicity than cereulide (HEp-2 cells [5]): approximately 8 fold
isocereulide F	5.00 min	–
CC(C)C[C@H]1OC(=O)[C@H](C(C)C)NC(=O)[C@H](C(C)C)OC(=O)CNC(=O)[C@@H](CC(C)C)OC(=O)[C@H](C(C)C)NC(=O)[C@H](C(C)C)OC(=O)[C@@H](C)NC(=O)[C@@H](CC(C)C)OC(=O)[C@H](C(C)C)NC(=O)[C@H](C(C)C)OC(=O)[C@@H](C)NC1=O [Isocereulide H, isocereulide H]	2.88 min	absolute EC50 (HEp-2 cells [2]; 48 h): 6.62 ng/mL; decreased toxicity effect on HEp-2 cells compared to 1 (HEp-2 cells [2]; HEp-2 cells, 48 h): 63%
isocereulide C	2.52 min	–
isocereulide D	2.88 min	–
